Patent publication US20060293351A1, “Promotion of wound healing” (priority 1999, published 2006)

Tests used:
[1] = tested on: full depth incision in the skin; assay: Wound healing in irradiated and wounded mice (histology, collagen type I immunohistochemistry); assay type: in vivo; conditions: 1 mg per mouse i.p. every other day, 14 days
Protocol: The effect of Halofuginone on wound healing was examined by using mice which were first irradiated and then wounded.
The experiment was conducted as follows. First, C3H, defined-flora, pathogen-free female mice of 12-14 weeks of age were anesthetized with 60 mg/kg sodium […]. The mice were then shaved. One group of mice was then irradiated as follows. First, a flap of skin about 40 mm long and about 20 mm wide was pulled through a slit in the lead cover of an irradiation jig and secured with tape, so that only the flap of skin was exposed. This exposed skin as then irradiated by using a 175 kVp/20 mA orthovoltage X-ray source, with a 2 mm Cu filter at a dose rate of 1.0 Gy/min. A standard dose of 18 Gy was delivered.
All of the mice were then wounded by making a full depth incision, about 25 mm long, in the skin along the midline of the lower back. Note that for the irradiated animals, the wound was made within the irradiated area, immediately following irradiation. For all mice, the incision was immediately closed by 3-4 metallic wound closure clips which were removed 2 days later.
After wounding, the mice were injected i.p. every other day, either with 1 mg per mouse of Halofuginone or with saline as a control. […]

skin wound = assay: Wound strength (bursting point, Instron tensiometer); assay type: in vivo, rats; conditions: irradiated or not; one or six injections
Protocol: Wound strength was assessed by preparing rats substantially as described above, except that one group of rats (not irradiated) only received one injection of Halofuginone after wounding. The strength of wounds was measured as follows. First, a square of skin which was approximately 20 mm long and 16 mm wide, and which included the main part of the wound, was excised from sacrificed rats. Next, the skin was cut, perpendicular to the wound, to yield 7 strips of skin, each of which was 2 mm wide. The skin strips were secured between paper reinforcement frames and loaded on an Instron tensiometer for stretching at a constant rate of 25 mm/min. The bursting point was then recorded.

O=C(CC1NCCC[C@H]1O)Cn1cnc2cc(Br)c(Cl)cc2c1=O (stereo partly drawn) [Halofuginone]
collagen content in the wound ([1]; irradiated mouse (18 Gy)): significantly lowered
healing of the wound ([1]; wounded and irradiated skin): the wound still healed
wound strength (skin wound): did not reduce wound strength
